This passage reports remaining activity results from publication PMC8286840, “Identifying SARS-CoV-2 antiviral compounds by screening for small molecule inhibitors of Nsp3 papain-like protease” (Biochemical Journal, 2021).

Each structure is given as a SMILES string. Where a name gives a salt, the structure may show the parent alone. Read-outs that look alike come from different tables or passages of the source.

Experiment [1] deals with T1, SARS-CoV-2 PLpro (nsp3 1564–1878) (Severe acute respiratory syndrome coronavirus 2, UniProt P0DTD1). Description: biochemical. Also on record: FRET-quenched peptide (Pro3) cleavage by PLpro, 10 min pre-incubation, slope over 20 min, normalised to no-compound control. To be noted: low concentration screen, read-out: % of control remaining.
Experiment [2] deals with T1, SARS-CoV-2 PLpro (nsp3 1564–1878). Description: biochemical. Also on record: FRET-quenched peptide (Pro3) cleavage by PLpro, 10 min pre-incubation, slope over 20 min, normalised to no-compound control. To be noted: high concentration screen, read-out: % of control remaining.

As for `CN[C@@H](C)C(=O)N[C@H](C(=O)N1CCC[C@H]1C(=O)Nc1sc(-c2ncco2)nc1-c1ccccc1)C1CCCCC1` [CUDC-427], the remaining activity at 1.25 µM in experiment [1] (Well no.=7062) turned out to be 99.8%. In experiment [2] (Well no.=7062), the remaining activity at 3.75 µM came out at 92.1%.
Consider `CS(=O)(=O)Nc1ccc(-c2coc3cc(OCc4cccc(C(=O)O)c4)ccc3c2=O)cc1` [CVT-10216], for which the remaining activity at 1.25 µM in experiment [1] (Well no.=5513) was found to be 105%. Besides, in experiment [2] (Well no.=5513), the remaining activity at 3.75 µM was 108%.
As to `O=C(c1ccc2c(c1)OCCO2)N1CCCCC1` [CX 546], the remaining activity at 1.25 µM in experiment [1] (Well no.=729) worked out at 103%. Besides, the remaining activity at 3.75 µM in experiment [2] (Well no.=729) was 99.5%.
On to `Cc1cnc(CNC(=O)c2c(=O)c3ccc(N4CCCN(C)CC4)nc3n3c2sc2ccccc23)cn1` [CX-5461], for which, in experiment [1] (Well no.=5340), the remaining activity at 1.25 µM came out at 99.1%. Besides, the remaining activity at 3.75 µM in experiment [2] (Well no.=5340) is 102%.
Consider `CN1CCC(S(=O)(=O)c2c(Cl)ccc(NC(=O)Nc3cccc(F)c3Cl)c2O)CC1` [CXCR2-IN-1], for which the remaining activity at 1.25 µM in experiment [1] (Well no.=8705) was determined as 100%. In experiment [2] (Well no.=8705), the remaining activity at 3.75 µM is 98.8%.
As to `CCc1ccn2ccnc2c1N1CCCN([C@@H](CC(N)=O)C2CCN(C(=O)[C@H]3C[C@@H]4CC[C@H]3O4)CC2)CC1` [CXCR7 modulator 2], the remaining activity at 1.25 µM in experiment [1] (Well no.=8557) is 112%. In addition, the remaining activity at 3.75 µM in experiment [2] (Well no.=8557) worked out at 108%.
Regarding `Cc1nc(N)sc1-c1ccnc(Nc2ccc(N3CCOCC3)cc2)n1` [CYC-116], in experiment [1] (Well no.=2885), the remaining activity at 1.25 µM amounted to 103%. For the same compound, the remaining activity at 3.75 µM in experiment [2] (Well no.=2885) was 101%.
With `O=C(c1cc(C2CC2)on1)N(C1CCCCC1)C1CCCCC1` [CYM-5541], the remaining activity at 1.25 µM in experiment [1] (Well no.=6224) stood at 97.7%. For the same compound, the remaining activity at 3.75 µM in experiment [2] (Well no.=6224) came out at 94.5%.
For `Cc1ccc(-c2c(-c3nn(C)c4ncnc(N5CC[C@H](N6CCCCC6)C5)c34)cnn2C)cc1` [CYP3cide], the remaining activity at 1.25 µM in experiment [1] (Well no.=5646) stood at 95.6%. In addition, the remaining activity at 3.75 µM in experiment [2] (Well no.=5646) turned out to be 91.1%.
In the case of `N#CCNC(=O)c1ccc(-c2ccnc(Nc3ccc(N4CCOCC4)cc3)n2)cc1` [CYT11387], in experiment [1] (Well no.=2753), the remaining activity at 1.25 µM was 98.6%. The remaining activity at 3.75 µM in experiment [2] (Well no.=2753) worked out at 99.6%.
Regarding `CO[C@H]1C(=O)[C@]2(C)[C@@H](OC)C[C@H]3OC[C@@]3(OC(C)=O)[C@H]2[C@H](OC(=O)c2ccccc2)[C@]2(O)C[C@H](OC(=O)[C@H](O)[C@@H](NC(=O)OC(C)(C)C)c3ccccc3)C(C)=C1C2(C)C` [Cabazitaxel (Jevtana)], the remaining activity at 1.25 µM in experiment [1] (Well no.=5263) amounted to 95.3%. The remaining activity at 3.75 µM in experiment [2] (Well no.=5263) came to 92.6%.
Consider `C=CCN1C[C@H](C(=O)N(CCCN(C)C)C(=O)NCC)C[C@@H]2c3cccc4[nH]cc(c34)C[C@H]21` [Cabergoline], for which the remaining activity at 1.25 µM in experiment [1] (Well no.=1929) worked out at 105%; in experiment [1] (Well no.=7179) it was 94.5%. Besides, the values for the remaining activity at 3.75 µM in experiment [2] (Well no.=1929) and in experiment [2] (Well no.=7179) were 105% and 96.6%, respectively.
Turning to `CC(=O)OC[C@@]1(O)C[C@@]23CC[C@@H]4c5ccoc5CC[C@@]4(C)[C@@H]2CC[C@@H]1C3` [Cafestol acetate], the remaining activity at 1.25 µM in experiment [1] (Well no.=3525) is 96.8%. The remaining activity at 3.75 µM in experiment [2] (Well no.=3525) came to 103%.
Turning to `C[C@@]12CCc3occc3[C@H]1CC[C@@]13C[C@@H](CC[C@H]12)[C@@](O)(CO)C3` [Cafestol], the remaining activity at 1.25 µM in experiment [1] (Well no.=3523) came out at 102%. In experiment [2] (Well no.=3523), the remaining activity at 3.75 µM was 96.8%.
`O=C(/C=C/c1ccc(O)c(O)c1)OCCc1ccccc1` [Caffeic acid phenethyl ester]: the remaining activity at 1.25 µM in experiment [1] (Well no.=140) came to 103%. Besides, the remaining activity at 3.75 µM in experiment [2] (Well no.=140) was found to be 104%.
For `O=C(O)/C=C/c1ccc(O)c(O)c1` [Caffeic acid], the figures for the remaining activity at 1.25 µM in experiment [1] (Well no.=233), in experiment [1] (Well no.=3957) and in experiment [1] (Well no.=7073) were 99%, 97% and 101%, respectively. In addition, the remaining activity at 3.75 µM in experiment [2] (Well no.=233) was determined as 99.3%; in experiment [2] (Well no.=3125), 104%; in experiment [2] (Well no.=3957), 96.7%; in experiment [2] (Well no.=7073), 95.2%.
As to `Cn1c(=O)c2c(ncn2C)n(C)c1=O` [Caffeine], the figures for the remaining activity at 1.25 µM in experiment [1] (Well no.=329), in experiment [1] (Well no.=1737) and in experiment [1] (Well no.=3344) were 95.2%, 105% and 89.5%, respectively. Also, the values for the remaining activity at 3.75 µM in experiment [2] (Well no.=329), in experiment [2] (Well no.=1737) and in experiment [2] (Well no.=3344) were 95.9%, 103% and 91.8%, respectively.
Regarding `C=C1CC[C@H](O)C/C1=C/C=C1\CCC[C@]2(C)[C@@H]([C@H](C)CCCC(C)(C)O)CC[C@@H]12` [Calcifediol], the remaining activity at 1.25 µM in experiment [1] (Well no.=1821) came to 90.8%. The remaining activity at 3.75 µM in experiment [2] (Well no.=1821) stood at 93.1%.
Consider `CNc1ccc2oc(C[C@H]3O[C@@]4(CC[C@H]3C)O[C@H]([C@H](C)C(=O)c3ccc[nH]3)[C@H](C)C[C@H]4C)nc2c1C(=O)O` [Calcimycin], for which, in experiment [1] (Well no.=376), the remaining activity at 1.25 µM worked out at 98.7%. Besides, the remaining activity at 3.75 µM in experiment [2] (Well no.=376) was found to be 96.8%.
With `C=C1/C(=C\C=C2/CCC[C@]3(C)[C@@H]([C@H](C)/C=C/[C@@H](O)C4CC4)CC[C@@H]23)C[C@@H](O)C[C@@H]1O` [Calcipotriene], in experiment [1] (Well no.=1760), the remaining activity at 1.25 µM amounted to 96.1%. In addition, in experiment [2] (Well no.=1760), the remaining activity at 3.75 µM was determined as 96.3%.
Take `C#CCOc1ccc2c(c1)c(-c1ccc(C(C)C)cc1)nc(=O)n2C(C)C` [Calcium-Sensing Receptor Antagonists I]: the remaining activity at 1.25 µM in experiment [1] (Well no.=8007) was determined as 101%. Also, the remaining activity at 3.75 µM in experiment [2] (Well no.=8007) came to 98.6%.
`CCN[C@H]1CO[C@@H](O[C@H]2[C@H](O[C@H]3C#C/C=C\C#C[C@]4(O)CC(=O)C(NC(=O)OC)=C3/C4=C/CSSSC)O[C@H](C)[C@@H](NO[C@H]3C[C@H](O)[C@H](SC(=O)c4c(C)c(I)c(O[C@@H]5O[C@@H](C)[C@H](O)[C@@H](OC)[C@H]5O)c(OC)c4OC)[C@@H](C)O3)[C@@H]2O)C[C@@H]1OC` [Calicheamicin]: the remaining activity at 1.25 µM in experiment [1] (Well no.=7060) amounted to 94.4%. The remaining activity at 3.75 µM in experiment [2] (Well no.=7060) worked out at 91.6%.
On to `Cc1ccc(O)c(N=Nc2c(O)cc(S(=O)(=O)O)c3ccccc23)c1` [Calmagite], for which, in experiment [1] (Well no.=8168), the remaining activity at 1.25 µM was found to be 96.3%. In addition, in experiment [2] (Well no.=8168), the remaining activity at 3.75 µM worked out at 82.2%.
For `Clc1ccc(C(c2ccc(Cl)cc2)[n+]2ccn(CC(OCc3ccc(Cl)cc3Cl)c3ccc(Cl)cc3Cl)c2)cc1` (centres unmarked) [Calmidazolium chloride], in experiment [1] (Well no.=174), the remaining activity at 1.25 µM stood at 101%. Further, the remaining activity at 3.75 µM in experiment [2] (Well no.=174) amounted to 94.5%.
Take `CN(C)C(=O)COC(=O)Cc1ccc(OC(=O)c2ccc(NC(=N)N)cc2)cc1` [Camostat mesylate]: in experiment [1] (Well no.=5405), the remaining activity at 1.25 µM was found to be 101%. Also, in experiment [2] (Well no.=5405), the remaining activity at 3.75 µM came out at 109%.
For the compound `CC[C@@]1(O)C(=O)OCc2c1cc1n(c2=O)Cc2cc3ccccc3nc2-1` [Camptothecin], the remaining activity at 1.25 µM in experiment [1] (Well no.=1664) came out at 98.5%; in experiment [1] (Well no.=3127), 96.8%. Besides, the remaining activity at 3.75 µM in experiment [2] (Well no.=1664) worked out at 84.5%; in experiment [2] (Well no.=3127), 91.9%.
